Data from the NIST ThermoML archive (doi:10.1021/je050334+).
Numbers after ± are expanded uncertainties.

Details: Liquid, Transpiration method

COC(=O)CCCCC(=O)OC [dimethyl 1,6-hexanedioate]
Details	vapor or sublimation pressure [kPa]
293.2 K	0.00253 ± 0.00014
296.2 K	0.00336 ± 0.00018
299.2 K	0.00443 ± 0.00024
302.2 K	0.00586 ± 0.00031
305.2 K	0.0074 ± 0.00039
308.2 K	0.00991 ± 0.00052
310.2 K	0.01133 ± 0.0006
313.3 K	0.01454 ± 0.00076
316.2 K	0.01794 ± 0.00095
319.3 K	0.02356 ± 0.0012
322.2 K	0.02831 ± 0.0015
325.3 K	0.03778 ± 0.002
328.2 K	0.04592 ± 0.0024
331.2 K	0.05704 ± 0.003
334.2 K	0.06981 ± 0.0036

CCOC(=O)c1ccccc1 [ethyl benzoate]
Details	vapor or sublimation pressure [kPa]
283.9 K	0.0071 ± 0.0004
286.9 K	0.0093 ± 0.0005
289 K	0.0113 ± 0.0006
292 K	0.0143 ± 0.0008
294.1 K	0.0174 ± 0.0009
295 K	0.0183 ± 0.001
298.1 K	0.0239 ± 0.0012
299.1 K	0.0254 ± 0.0014
301.2 K	0.0312 ± 0.0016
304.2 K	0.039 ± 0.002
307.2 K	0.0472 ± 0.0025
310.1 K	0.0597 ± 0.0031
312.3 K	0.0716 ± 0.0037
315.3 K	0.0862 ± 0.0045
317.3 K	0.1055 ± 0.0056
320.3 K	0.1297 ± 0.0068
323.4 K	0.1656 ± 0.0086
326.4 K	0.2016 ± 0.01
329.5 K	0.2452 ± 0.013
332.5 K	0.2944 ± 0.015
